# From patent publication US20160022699A1, “COMBINATIONS AND METHODS FOR TREATING NON AGE-RELATED HEARING IMPAIRMENT IN A SUBJECT” (Washington University, priority 2012, published 2016)
# Entries after “also recorded” stand apart in the source; their conditions may differ.
# Assays:
# cultured auditory cells = conditions: cited from earlier work
# NIHL in mice [1] = conditions: intraperitoneal injections; cited from earlier work
# [2] = tested on: noise-induced hearing loss (NIHL) in C57BL/6J mice; assay: NIHL treatment protocol: drug i.p. 24 hours after white noise (110 dB SPL, 30 min), ABR threshold shifts; conditions: for drug effect on ABR threshold shift (two-way ANOVA), treatment / gender effect on ABR threshold shift (two-way ANOVA), treatment: 24 hours after noise; for ED50: Mus musculus, ip, 24 h, read-out: median effective dose (ED50) to treat noise-induced hearing loss
# [3] = tested on: noise-induced hearing loss (NIHL) in C57BL/6J mice; assay: NIHL prevention protocol: drug i.p. two hours before white noise (110 dB SPL, 30 min), ABR thresholds / threshold shifts two weeks after noise; conditions: for ED50: Mus musculus, ip, 2 h, read-out: median effective dose (ED50) to prevent noise-induced hearing loss; for drug effect on ABR threshold shift (two-way ANOVA), prevention: all dosages
# NIHL in mice [4] = conditions: cited from earlier work; for prophylactic and therapeutic effects against NIHL: drinking water, three weeks before noise
structure (smiles),measurement,setting,value
Fc1ccc(C(c2ccc(F)cc2)N2CCN(C/C=C/c3ccccc3)CC2)cc1 [flunarizine],cisplatin-induced cell death,cultured auditory cells,inhibit cisplatin-induced death of cultured auditory cells
same,NIHL prophylactic function,NIHL in mice [1],no NIHL prophylactic functions
NS(=O)(=O)Cc1noc2ccccc12 [zonisamide],"drug effect on ABR threshold shift (two-way ANOVA), treatment",[2],no statistically significant drug effects
same,"gender effect on ABR threshold shift (two-way ANOVA), treatment",[2],the gender had no effects as well
same,ED50,[2],2540 mg/kg
same,ED50,[3],125 mg/kg
same,dosage dependence of NIHL prevention,[3]; two hours before noise,clear dosage-dependent prevention of NIHL
same,"gender effect on ABR threshold shift (two-way ANOVA), prevention",[3]; two hours before noise,the gender had no effects; also recorded: showed no gender differences
same,"drug effect on ABR threshold shift (two-way ANOVA), prevention",[3]; two hours before noise,statistically significant drug effects
CCC1(C)CC(=O)NC1=O (stereo not drawn) [ethosuximide],prophylactic and therapeutic effects against NIHL,NIHL in mice [4],both prophylactic and therapeutic effects
same,"drug effect on ABR threshold shift (two-way ANOVA), treatment",[2],statistically significant drug effects
same,"gender effect on ABR threshold shift (two-way ANOVA), treatment",[2],the gender effect was also significant; also recorded: gender difference was also observed
same,ED50,[2],243 mg/kg
same,effect on NIHL (Tukey/Kramer post-hoc),"[3]; 60 mg/kg, two hours before noise",significantly enhanced NIHL
same,effect on NIHL (Tukey/Kramer post-hoc),"[3]; 90 mg/kg, two hours before noise",significantly protected against NIHL
same,effect on NIHL (Tukey/Kramer post-hoc),"[3]; 130 to 260 mg/kg, two hours before noise",reduced to no significance
same,median effective dose (ED50) to prevent noise-induced hearing loss,"[3]; i.p. two hours before noise, calculated with CompuSyn (Chou-Talalay)",no ED50; also recorded: could not be obtained
same,"gender effect on ABR threshold shift (two-way ANOVA), prevention",[3]; two hours before noise,showed no gender differences
same,"drug effect on ABR threshold shift (two-way ANOVA), prevention",[3]; two hours before noise,statistically significant main effect of drug concentrations
C[C@@H]1C[C@H]2[C@@H]3CCC4=CC(=O)C=C[C@]4(C)[C@@]3(F)[C@@H](O)C[C@]2(C)[C@@]1(O)C(=O)CO [dexamethasone],ED50,[2],96.3 mg/kg
same,ED50,[3],39.4 mg/kg
CN1C(=O)OC(C)(C)C1=O [trimethadione],prophylactic and therapeutic effects against NIHL,NIHL in mice [4],both prophylactic and therapeutic effects
same,gender dependence of therapeutic effect against NIHL,"NIHL in mice [4]; mouse, in vivo",observed only in male mice
same,outer hair cell (OHC) protection,"NIHL in mice [4]; mouse, in vivo",OHC protection was observed
C[C@H]1C[C@@H]2[C@H]([C@@H](O)C[C@@]3(C)[C@H]2CC[C@]3(O)C(=O)CO)[C@@]2(C)C=CC(=O)C=C12 [methylprednisolone],ED50,[2],95.6 mg/kg
same,ED50,[3],525 mg/kg
COCC(=O)O[C@]1(CCN(C)CCCc2nc3ccccc3[nH]2)CCc2cc(F)ccc2[C@@H]1C(C)C [mibefradil],NIHL prophylactic function,NIHL in mice [1],no NIHL prophylactic functions
